Reference: US20240384268A1, “Oligonucleotides” (Hudson Institute of Medical Research, priority 2021, published 2024)

What follows are sequences tested against T1, human TLR9 (Homo sapiens, UniProt Q9NR96) (assay: HEK-TLR9 NF-κB-luciferase reporter, ODN2006 stimulation). Details: MOE-modified ASO at 100 nM; averaged NF-κB-Luciferase relative to ODN2006 condition.
T1 construct: HA; host or cells: 293XL-hTLR9-HA (HEK293)
T1 sequence (Q9NR96 26-1032): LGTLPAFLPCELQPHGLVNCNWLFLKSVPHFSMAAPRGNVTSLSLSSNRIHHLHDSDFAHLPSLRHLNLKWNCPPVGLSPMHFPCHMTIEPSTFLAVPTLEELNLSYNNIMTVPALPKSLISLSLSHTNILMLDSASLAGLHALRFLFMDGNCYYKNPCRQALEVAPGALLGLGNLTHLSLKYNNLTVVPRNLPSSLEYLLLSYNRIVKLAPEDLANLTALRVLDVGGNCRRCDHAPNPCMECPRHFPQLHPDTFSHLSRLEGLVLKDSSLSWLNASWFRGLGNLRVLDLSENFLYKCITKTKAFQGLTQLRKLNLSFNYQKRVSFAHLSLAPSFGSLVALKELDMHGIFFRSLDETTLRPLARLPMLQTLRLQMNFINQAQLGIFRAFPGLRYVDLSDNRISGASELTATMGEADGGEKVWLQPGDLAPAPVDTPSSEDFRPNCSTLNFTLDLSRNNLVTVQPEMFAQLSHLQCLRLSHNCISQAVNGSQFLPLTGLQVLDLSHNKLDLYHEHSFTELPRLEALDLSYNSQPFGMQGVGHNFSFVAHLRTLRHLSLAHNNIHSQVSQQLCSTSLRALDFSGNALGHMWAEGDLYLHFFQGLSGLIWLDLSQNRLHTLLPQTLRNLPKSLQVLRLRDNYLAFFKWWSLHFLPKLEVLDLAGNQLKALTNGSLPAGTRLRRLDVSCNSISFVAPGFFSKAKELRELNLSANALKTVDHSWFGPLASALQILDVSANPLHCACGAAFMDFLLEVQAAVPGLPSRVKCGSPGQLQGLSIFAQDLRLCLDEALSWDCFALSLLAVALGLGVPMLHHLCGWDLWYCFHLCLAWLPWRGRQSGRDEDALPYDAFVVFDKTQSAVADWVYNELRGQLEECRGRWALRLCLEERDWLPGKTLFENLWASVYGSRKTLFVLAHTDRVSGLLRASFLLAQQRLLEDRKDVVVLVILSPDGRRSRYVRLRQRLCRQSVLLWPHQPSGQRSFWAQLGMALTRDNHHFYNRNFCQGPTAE
Type: cell-based

| Sequence | TLR9 100 nM |
| --- | --- |
| GTCCTTGCACGTGGCTTCGT (antisense; 2'-MOE modified, pattern not given here) [EGFR-1013 MOE] | 0.682 |
| GTCTTGGCTTCGTGGAGCAG (antisense; 2'-MOE modified, pattern not given here) [MB21D1-520 MOE] | 0.709 |
| GTGTCCTTGCACGTGGCTTC (antisense; 2'-MOE modified, pattern not given here) [EGFR-1015 MOE] | 0.784 |
| GTGTCTTCATCGGCCCTGCC (antisense; 2'-MOE modified, pattern not given here) [CAMSAP1-2113 MOE] | 0.611 |
| TAGGCACTTTGCCTCCTTCT (antisense; 2'-MOE modified, pattern not given here) [EGFR-2859 MOE] | 0.808 |
| TAGTCAAGGGCATATCCTAC (antisense; 2'-MOE modified, pattern not given here) [HPRT-732 MOE] | 0.787 |
| TCAAAGGACTGAGGAAAGGG (antisense; 2'-MOE modified, pattern not given here) [CAMSAP1-6273 MOE] | 0.265 |
| TCCAACACTTCGTGGGGTCC (antisense; 2'-MOE modified, pattern not given here) [HPRT-667 MOE] | 0.792 |
| TCGCACTTCAGTCTGAGCAG (antisense; 2'-MOE modified, pattern not given here) [MB21D1-719 MOE] | 0.521 |
| TGTCCTTGCACGTGGCTTCG (antisense; 2'-MOE modified, pattern not given here) [EGFR-1014 MOE] | 0.764 |
| TGTCTTCATCGGCCCTGCCT (antisense; 2'-MOE modified, pattern not given here) [CAMSAP1-2112 MOE] | 0.697 |
| TGTGATGGCCTCCCATCTCC (antisense; 2'-MOE modified, pattern not given here) [HPRT-332 MOE] | 0.674 |
| TTCTGCAGCTTCCTTGTCCT (antisense; 2'-MOE modified, pattern not given here) [CTNN2B-2136 MOE] | 0.746 |
| TTGCACACTTCGTACCCAAA (antisense; 2'-MOE modified, pattern not given here) [CAMSAP1-4915 MOE] | 0.894 |
| TTGCCATGCTGGCTCGGACT (antisense; 2'-MOE modified, pattern not given here) [CAMSAP1-2584 MOE] | 0.516 |
| TTGGCTCGGCTTGCCTACTT (antisense; 2'-MOE modified, pattern not given here) [CAMSAP1-5594 MOE] | 0.705 |

Same assay, conditions: MOE-modified ASO at 500 nM; averaged NF-κB-Luciferase relative to ODN2006 condition

| Sequence | TLR9 500 nM |
| --- | --- |
| GTCCTTGCACGTGGCTTCGT (antisense; 2'-MOE modified, pattern not given here) [EGFR-1013 MOE] | 0.602 |
| GTCTTGGCTTCGTGGAGCAG (antisense; 2'-MOE modified, pattern not given here) [MB21D1-520 MOE] | 0.599 |
| GTGTCCTTGCACGTGGCTTC (antisense; 2'-MOE modified, pattern not given here) [EGFR-1015 MOE] | 0.641 |
| GTGTCTTCATCGGCCCTGCC (antisense; 2'-MOE modified, pattern not given here) [CAMSAP1-2113 MOE] | 0.201 |
| TAGGCACTTTGCCTCCTTCT (antisense; 2'-MOE modified, pattern not given here) [EGFR-2859 MOE] | 0.914 |
| TAGTCAAGGGCATATCCTAC (antisense; 2'-MOE modified, pattern not given here) [HPRT-732 MOE] | 0.462 |
| TCAAAGGACTGAGGAAAGGG (antisense; 2'-MOE modified, pattern not given here) [CAMSAP1-6273 MOE] | 0.040 |
| TCCAACACTTCGTGGGGTCC (antisense; 2'-MOE modified, pattern not given here) [HPRT-667 MOE] | 0.616 |
| TCGCACTTCAGTCTGAGCAG (antisense; 2'-MOE modified, pattern not given here) [MB21D1-719 MOE] | 0.266 |
| TGTCCTTGCACGTGGCTTCG (antisense; 2'-MOE modified, pattern not given here) [EGFR-1014 MOE] | 0.623 |
| TGTCTTCATCGGCCCTGCCT (antisense; 2'-MOE modified, pattern not given here) [CAMSAP1-2112 MOE] | 0.480 |
| TGTGATGGCCTCCCATCTCC (antisense; 2'-MOE modified, pattern not given here) [HPRT-332 MOE] | 0.782 |
| TTCTGCAGCTTCCTTGTCCT (antisense; 2'-MOE modified, pattern not given here) [CTNN2B-2136 MOE] | 0.467 |
| TTGCACACTTCGTACCCAAA (antisense; 2'-MOE modified, pattern not given here) [CAMSAP1-4915 MOE] | 0.524 |
| TTGCCATGCTGGCTCGGACT (antisense; 2'-MOE modified, pattern not given here) [CAMSAP1-2584 MOE] | 0.534 |
| TTGGCTCGGCTTGCCTACTT (antisense; 2'-MOE modified, pattern not given here) [CAMSAP1-5594 MOE] | 0.445 |
